Measured values taken from ChEMBL document CHEMBL1201862, “PubChem BioAssay data set” (2004).
Active and inactive are the calls of the source.

How the values were obtained:
[1] = A549 cell cytotoxicity, dose response, cytotoxicity control, plate reader, cherry-pick, antagonist series (AID 743412); type: functional, cell-based
[2] = HepG2 cell cytotoxicity, dose response, cytotoxicity control, plate reader, cherry-pick, antagonist series (AID 743416); type: functional, cell-based
[3] = LGR2 antagonists, dose response, cell-based, HEK293, CRE-luciferase reporter, cherry pick, set 2 (AID 743343); type: functional;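 note: transfected cells were stimulated with diluted bursicon conditioned medium after compound addition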
[4] = MC4R antagonists, dose response, counter-screen for LGR2 antagonist project, cell-based, plate reader, cherry pick (AID 743444); type: functional;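 note: transfected HEK 293 cells stimulated with alpha-MSH peptide; potency of inhibitors of the alpha-MSH evoked signal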
[5] = inhibitors of SNCA 5'UTR-driven reporter translation, confirmation, H4 neuroglioma cells, luminescence (AID 1988); type: functional, cell-based
[6] = inhibitors of intracellular T. cruzi replication, confirmation, NIH3T3 host cells, beta-gal luminescence (AID 2044); type: functional, cell-based;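 note: intracellular parasites grown in NIH/3T3 mouse fibroblasts as host cells; luminescent beta-galactosidase reporter signal from transgenic T. cruzi replicating inside host cells; inhibitors lower the luminescence signal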
[7] = control 3'UTR Renilla luciferase suppression, dose response, counter-screen for Shn3 inhibitor project, cell-based, Clone20-Shn3RL, cherry-picked (AID 624133); type: functional
[8] = HepG2 cell cytotoxicity, dose response, cytotoxicity control for Shn3 inhibitor project, CellTiter-Glo, cherry-picked (AID 624134); type: functional, cell-based
[9] = cytotoxicity toward NIH3T3 fibroblasts, dose response, counter-screen, cell-based, ATP luminescence, mouse fibroblasts (AID 2010); type: functional;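 note: cells exposed to compound for about 90 hours before reading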
[10] = Shn3 3'UTR reporter inhibitors, dose response, cell-based, Clone20 osteoblasts, firefly luciferase, cherry-picked (AID 624132); type: functional;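 note: firefly luciferase luminescence from reporter carrying the Shn3 3'UTR in osteoblasts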
[11] = inhibitors of firefly luciferase expression or activity, dose response, H4 neuroglioma cells, luminescence (AID 1990); type: functional, cell-based
[12] = Luminescence Cell-Based Dose Response HTS to Identify Inhibitors of 5'UTR Stem-Loop Driven Prion Protein mRNA Translation in H4 Neuroglioblastoma Cells. [Related pubchem assays: 1827 (Project Summary), 1813 (Primary HTS)]; type: functional
[13] = biological target: T1, DNA repair protein RAD52 homolog (Homo sapiens, UniProt P43351); type: functional, biochemical
T1 sequence (P43351 whole entry): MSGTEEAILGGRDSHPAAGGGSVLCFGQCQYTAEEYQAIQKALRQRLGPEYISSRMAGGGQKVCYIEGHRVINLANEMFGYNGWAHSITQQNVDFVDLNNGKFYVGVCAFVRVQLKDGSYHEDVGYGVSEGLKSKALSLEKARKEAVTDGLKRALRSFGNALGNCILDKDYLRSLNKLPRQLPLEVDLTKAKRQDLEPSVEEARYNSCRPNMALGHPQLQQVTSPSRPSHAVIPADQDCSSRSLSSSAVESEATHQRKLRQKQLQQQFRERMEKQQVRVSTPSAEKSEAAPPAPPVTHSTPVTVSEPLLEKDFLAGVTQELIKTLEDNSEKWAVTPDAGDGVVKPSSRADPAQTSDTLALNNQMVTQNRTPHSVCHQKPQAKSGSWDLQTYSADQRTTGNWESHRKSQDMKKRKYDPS

[14] = inhibitors of clade B AD8 Env fusion, dose response, cell-based, cherry-pick (AID 652062); type: functional;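 note: luciferase signal from cell-cell fusion driven by HIV-1 clade B AD8 Env; potency is for inhibitors of fusion seen as a drop in luminescence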
[15] = ZM109 Env clade C HIV-1 fusion inhibitors, dose response, HeLa effector, CEM target cells, luciferase, cherry-pick (AID 652058); type: functional, cell-based
Genome polyprotein = Genome polyprotein (dengue virus type 2, UniProt P29990); test: Dengue-2 NS5 methyltransferase inhibitors, primary screen, biochemical, confirmation dose response (AID 588689); type: functional
[16] = biological target: T2, Rac GTPase-activating protein 1 (Homo sapiens, UniProt Q9H0H5); test: MgcRacGAP GTPase-activating activity inhibitors, confirmation, biochemical, ADP Hunter fluorescence, primary and confirmatory (AID 624330); type: functional
T2 sequence (Q9H0H5 whole entry): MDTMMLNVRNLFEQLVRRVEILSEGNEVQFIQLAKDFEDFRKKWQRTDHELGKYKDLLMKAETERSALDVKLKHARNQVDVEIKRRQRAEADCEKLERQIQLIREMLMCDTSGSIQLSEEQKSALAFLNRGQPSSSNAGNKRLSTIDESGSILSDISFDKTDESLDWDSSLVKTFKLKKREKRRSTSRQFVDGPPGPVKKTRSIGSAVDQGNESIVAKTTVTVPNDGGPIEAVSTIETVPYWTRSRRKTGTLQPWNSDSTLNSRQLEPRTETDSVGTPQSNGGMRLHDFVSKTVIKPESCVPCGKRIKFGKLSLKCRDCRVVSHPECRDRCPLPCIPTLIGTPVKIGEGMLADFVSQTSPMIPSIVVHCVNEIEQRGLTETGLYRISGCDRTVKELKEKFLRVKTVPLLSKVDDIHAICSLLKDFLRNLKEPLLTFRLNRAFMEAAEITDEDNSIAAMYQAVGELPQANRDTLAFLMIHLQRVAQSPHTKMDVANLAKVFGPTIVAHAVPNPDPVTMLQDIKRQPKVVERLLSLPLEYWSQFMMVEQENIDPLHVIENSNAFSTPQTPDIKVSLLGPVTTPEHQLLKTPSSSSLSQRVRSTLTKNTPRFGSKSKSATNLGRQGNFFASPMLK

[17] = biological target: T3, Carboxy-terminal domain RNA polymerase II polypeptide A small phosphatase 1 (Homo sapiens, UniProt Q9GZU7); test: inhibitors of CTDSP1, concentration-response testing, biochemical assay, absorbance-based, actives from ultra-high-throughput screening (AID 540297); type: functional
T3 sequence (Q9GZU7 whole entry): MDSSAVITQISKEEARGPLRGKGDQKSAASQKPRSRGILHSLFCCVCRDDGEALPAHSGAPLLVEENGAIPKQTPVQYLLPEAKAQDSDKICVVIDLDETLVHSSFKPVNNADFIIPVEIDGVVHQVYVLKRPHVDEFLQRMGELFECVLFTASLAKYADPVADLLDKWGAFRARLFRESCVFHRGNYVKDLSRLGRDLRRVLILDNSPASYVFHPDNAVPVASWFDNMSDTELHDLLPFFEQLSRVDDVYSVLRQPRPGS

INS1 = test: beta cell apoptosis inhibitors, cytokine rescue, dose response, luminescence, retest (AID 449756); type: functional, cell-based; settings: Rattus norvegicus;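 note: cell death triggered by IL-1 beta plus TNF-alpha plus IFN-gamma mixture; protective hits raise ATP signal compared with cytokine alone wells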
BJ [18] = test: cells; type: functional, cell-based; settings: Homo sapiens
BJ [19] = test: cytotoxicity toward BJ-TERT-LT-ST fibroblasts, dose response, cell-based, RAS-independent, luminescence (AID 1935); type: functional; settings: Homo sapiens;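 note: BJ fibroblasts immortalized with TERT plus LT and ST oncogenes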
[20] = biological target: T4, Heat shock factor protein 1 (Mus musculus, UniProt P38532); test: HSF1 potentiators in luciferase reporter cells, confirmation, cell-based, NIH3T3, luminescence, dose retest (AID 435004); type: functional;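 note: stress induced by proteasome inhibitor MG132 added 30 min after compound; luciferase reporter driven by HSF1 response element in NIH3T3 cells; actives raise luminescence as potentiators of the MG132 stress response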
T4 sequence (P38532 whole entry): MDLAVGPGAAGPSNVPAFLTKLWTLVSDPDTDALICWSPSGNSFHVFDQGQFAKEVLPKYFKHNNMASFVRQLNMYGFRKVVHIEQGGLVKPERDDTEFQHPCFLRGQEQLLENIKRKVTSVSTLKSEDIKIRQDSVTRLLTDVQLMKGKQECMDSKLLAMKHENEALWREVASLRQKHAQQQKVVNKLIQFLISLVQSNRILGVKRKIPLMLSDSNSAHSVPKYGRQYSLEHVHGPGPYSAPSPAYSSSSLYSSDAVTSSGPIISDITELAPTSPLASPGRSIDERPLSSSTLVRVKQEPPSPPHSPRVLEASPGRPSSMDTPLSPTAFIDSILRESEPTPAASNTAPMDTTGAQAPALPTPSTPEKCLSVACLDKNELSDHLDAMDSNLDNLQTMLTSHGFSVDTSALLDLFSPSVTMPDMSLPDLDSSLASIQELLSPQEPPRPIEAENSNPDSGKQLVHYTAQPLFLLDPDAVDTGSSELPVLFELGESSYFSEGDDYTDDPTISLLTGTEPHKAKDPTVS

BJ [21] = test: cytotoxicity toward BJ-TERT fibroblasts, dose response, cell-based, RAS-independent, luminescence (AID 1933); type: functional; settings: Homo sapiens
[22] = cytotoxicity toward DRD oncogenic fibroblasts, dose response, cell-based, non-viral oncogenic, luminescence (AID 1934); type: functional; settings: Homo sapiens
Streptococcus = test: Group A Streptococcus viability loss, dose response, counter-screen for streptokinase expression inhibitor project, luminescence, BacTiterGlo (AID 1915); type: functional, organism-based;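 note: potency for reduction of bacterial viability or growth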
[23] = THP-1 cell cytotoxicity, dose response, cytotoxicity control for non-replicating M. tuberculosis project (AID 489025); type: functional
cells = type: functional
[24] = test system: Streptococcus sp. 'group A'; test: growth inhibition of control SK(-) GAS strain, dose response, counter-screen for streptokinase expression inhibitor project, luminescence, kanamycin, BacTiterGlo, confirmation (AID 1900); type: functional, organism-based
[25] = cytotoxicity in HEK-293T cells, dose response, cytotoxicity control for TCR NF-kB inhibitor project, luminescence, T-cell screen hits (AID 489026); type: functional, cell-based;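 note: cells exposed to compound about 14 hours before the viability readout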
[26] = A Cell Based Secondary Assay To Explore Cytotoxicity of Compounds that Sensitize Mycobacterium Tuberculosis to Beta-Lactam Antibiotics.; type: functional
[27] = biological target: T5, High affinity choline transporter 1 (Homo sapiens, UniProt Q9GZV3); test: CHT inhibitors, dose response, cell-based, 5-point CRC, membrane potential dye (AID 504840); type: functional
T5 sequence (Q9GZV3 whole entry): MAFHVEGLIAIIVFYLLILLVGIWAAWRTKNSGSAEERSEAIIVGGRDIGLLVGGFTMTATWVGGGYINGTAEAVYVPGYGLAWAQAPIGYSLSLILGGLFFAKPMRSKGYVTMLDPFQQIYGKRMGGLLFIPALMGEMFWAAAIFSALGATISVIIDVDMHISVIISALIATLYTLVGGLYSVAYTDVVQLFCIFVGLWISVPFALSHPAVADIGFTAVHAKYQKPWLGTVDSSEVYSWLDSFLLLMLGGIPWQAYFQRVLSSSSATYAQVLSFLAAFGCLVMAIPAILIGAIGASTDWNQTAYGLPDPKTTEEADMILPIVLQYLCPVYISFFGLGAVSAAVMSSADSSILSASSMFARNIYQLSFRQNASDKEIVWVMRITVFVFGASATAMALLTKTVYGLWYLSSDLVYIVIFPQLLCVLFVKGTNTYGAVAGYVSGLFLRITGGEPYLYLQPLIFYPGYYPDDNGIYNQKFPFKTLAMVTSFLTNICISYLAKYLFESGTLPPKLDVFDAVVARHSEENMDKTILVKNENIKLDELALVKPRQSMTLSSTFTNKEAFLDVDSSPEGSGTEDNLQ

Sequence of Genome polyprotein (P29990 2492-3391 limits assumed): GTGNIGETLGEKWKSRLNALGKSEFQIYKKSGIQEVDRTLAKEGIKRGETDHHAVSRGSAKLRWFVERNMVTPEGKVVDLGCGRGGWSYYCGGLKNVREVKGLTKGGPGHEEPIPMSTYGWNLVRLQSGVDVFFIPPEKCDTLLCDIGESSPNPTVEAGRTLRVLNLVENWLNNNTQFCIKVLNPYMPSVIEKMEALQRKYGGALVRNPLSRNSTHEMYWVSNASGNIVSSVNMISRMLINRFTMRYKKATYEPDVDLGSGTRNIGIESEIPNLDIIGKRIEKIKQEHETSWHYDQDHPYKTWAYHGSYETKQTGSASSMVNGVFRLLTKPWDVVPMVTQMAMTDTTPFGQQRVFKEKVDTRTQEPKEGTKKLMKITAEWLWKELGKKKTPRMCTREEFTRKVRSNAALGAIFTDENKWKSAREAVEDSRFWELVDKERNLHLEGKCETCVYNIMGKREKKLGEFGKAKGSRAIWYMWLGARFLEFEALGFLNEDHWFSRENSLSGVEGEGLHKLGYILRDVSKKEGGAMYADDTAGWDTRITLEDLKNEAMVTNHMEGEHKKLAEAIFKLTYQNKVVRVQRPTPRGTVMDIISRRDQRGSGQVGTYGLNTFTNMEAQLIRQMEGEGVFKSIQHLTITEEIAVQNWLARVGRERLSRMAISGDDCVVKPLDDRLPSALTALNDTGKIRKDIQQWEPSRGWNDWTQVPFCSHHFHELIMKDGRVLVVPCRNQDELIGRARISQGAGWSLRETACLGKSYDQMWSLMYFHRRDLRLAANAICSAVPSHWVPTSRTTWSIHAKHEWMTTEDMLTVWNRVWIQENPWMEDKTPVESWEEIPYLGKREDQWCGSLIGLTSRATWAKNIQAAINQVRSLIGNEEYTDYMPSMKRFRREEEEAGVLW

CCCOc1ccc(F)cc1-c1cc(C(=O)Nc2cc(OC)c(OC)c(OC)c2)[nH]n1
AC50 [1]: > 52 µM (inactive)
AC50 [2]: > 52 µM (inactive)
AC50 [3]: 24 µM (active)
AC50 [4]: 31.2 µM (active)

CCOC(=O)c1c(CSc2ccc(CC)cc2)oc2ccc(O)c(CN(C)C)c12
EC50 [5]: > 120 µM (not active)
EC50 [6]: 2.81 µM (active)
AC50 [7]: 14.1 µM (active)
AC50 [8]: 30.8 µM (active)
EC50 [9]: > 30 µM (not active)
AC50 [10]: 3.05 µM (active)
EC50 [11]: > 120 µM (not active)
EC50 [12]: > 120 µM (not active)
AC50 [13]: 15.3 µM (active)

COc1ccc(S(=O)(=O)N[C@@H]2C=C[C@H](CC(=O)N3CCC(Cc4ccccc4)CC3)O[C@@H]2CO)cc1
AC50 [14]: 32.6 µM (active)
AC50 [15]: 19 µM (active)

CCCCNC(=O)c1onc(CSc2cccc3ccccc23)c1C(=O)O
IC50 (Genome polyprotein): 49.6 µM (active)

CCN(CC)CCCN(C(=O)c1cccc(C)c1)c1nc(-c2ccc(OC)cc2)cs1
AC50 [13]: 17.2 µM (active)

COc1ccccc1S(=O)(=O)N[C@H]1CC[C@@H](CC(=O)N2CCN(C)CC2)O[C@H]1CO
AC50 [14]: 29.1 µM (active)
AC50 [15]: 0.992 µM (active)

O=C1NC(=O)N(c2ccc3c(c2)OCO3)C(=O)/C1=C\c1ccc(-c2ccccc2C(=O)O)o1
IC50 (Genome polyprotein): > 100 µM (active)
IC50 [16]: 75.4 µM (active)
IC50 [17]: 3.9 µM (active)

O=C1N=C(Nc2nc3ccccc3[nH]2)c2ccccc21
AC50 (INS1): 3 µM (active)
EC50 (BJ [18]): 24.8 µM (inconclusive)
EC50 (BJ [19]): 19.3 µM (active)
EC50 [20]: 0.987 µM (inconclusive)
EC50 (BJ [21]): 12.5 µM (active)
EC50 [22]: 14.9 µM (active)

Cc1cc(C)c2nc(N3C(=O)C(O)=C(C(=O)c4ccco4)C3c3ccc(O)cc3)sc2c1 (stereo not given)
IC50 (Genome polyprotein): 30.4 µM (active)

Cc1ccccc1OCCCCc1c(C)n[nH]c1C
EC50 (Streptococcus): 19 µM (active)
CC50 [23]: > 40 µM (active)
IC50 (cells): 7 µM (active)
EC50 [24]: 9.02 µM (active)

Cc1c(C(=O)N2CCOCC2)[nH]c2c1C(=O)CC(c1ccccc1Cl)C2 (stereo not given)
IC50 [25]: > 80 µM (inactive)

O=C(Nc1ccc(C(F)(F)F)cc1)c1cc(-c2cccnc2)nc2ccc(Br)cc12
CC50 [26]: > 40 µM (active)

COc1cc(CC(=O)OCC(=O)c2ccc3c(c2)OCCO3)cc(OC)c1OC
EC50 [5]: 4.99 µM (inconclusive)
IC50 [25]: > 80 µM (inactive)
EC50 (BJ [18]): 15.1 µM (active)
EC50 (BJ [19]): 1.62 µM (inconclusive)
EC50 [11]: 5.8 µM (inconclusive)
EC50 (BJ [21]): 2.14 µM (active)
EC50 [12]: 5.66 µM (active)
EC50 [22]: 2.47 µM (active)

COc1cc(/C=C2\SC(NS(=O)(=O)Cc3ccccc3)=NC2=O)c([N+](=O)[O-])cc1OC
IC50 [27]: 9.12 µM (active)
IC50 (Genome polyprotein): 55.8 µM (active)
